Source: paper PMC12162873, “Modulating phosphatase DUSP22 with BML-260 ameliorates skeletal muscle wasting via Akt independent JNK-FOXO3a repression” (EMBO Molecular Medicine, 2025)
Several values for one entry are separate records, joined by “and”; a condition that tells them apart may be missing. Equal values may be shown once. Read-outs that look alike come from different tables or passages of the source.

Legend:
[1] = target: T1, GST-tagged-DUSP22 (Homo sapiens, UniProt Q9NRW4); assay: DUSP22 phosphatase activity assay (EnzChek kit, DiFMUP substrate); assay type: biochemical; conditions: 45 min at room temperature, read-out: IC50, inhibition of DUSP22 activity
T1 construct: purchased Sigma-Aldrich SRP5021
T1 sequence (Q9NRW4 1-184): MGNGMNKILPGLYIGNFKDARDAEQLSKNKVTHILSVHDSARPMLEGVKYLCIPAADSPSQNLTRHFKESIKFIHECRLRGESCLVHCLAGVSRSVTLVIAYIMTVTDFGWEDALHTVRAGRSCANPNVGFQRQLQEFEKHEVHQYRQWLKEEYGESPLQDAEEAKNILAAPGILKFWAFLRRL
Procedure: The phosphatase activity of purified DUSP22 was measured using the EnzChek® Phosphatase Assay Kit (E12020, ThermoFisher, MA, USA) following the manufacturer’s instructions. In brief, for the assay a 200 µM 6,8-difluoro-4-methylumbelliferyl phosphate (DiFMUP) working solution was prepared. 50 µL DiFMUP solution was added to each well of a black-walled microplate, followed by a 50 µL sample containing GST-tagged-DUSP22 (SRP5021, Sigma-Aldrich, MO, USA) or 1X reaction buffer, to give a total reaction volume of 100 µL per well. BML-260 and 1X reaction buffer in a 50 µL volume were then added to each well. The microplate was incubated at room temperature for 45 min in the dark and fluorescence was measured at excitation 360 nm and emission 455 nm (SpectraMAX Gemini XS, Molecular Devices, CA, USA).
A) Phosphatase activity assay for DUSP22 and inhibition by BML-260. […] (n=4) B) CB-Dock2 molecular docking analysis of BML-260 binding to the active site of DUSP22, DUSP22 with an active site mutation (at C88S), and DUSP15, which is a DUSP member with the highest homology with DUSP22 (as assessed by sequence alignment).
BML-260 binding. BML-260 bound DUSP15 at the interface of the A and B chain, distinct from the predicted active site at position 85. n represents technical replicates analyzed by Stu-dent’s t test. […]

[2] = Pharmacokinetics analysis, TA muscle (LC-MS/MS); assay type: in vivo, mouse; conditions: for concentration at 0.5 h / concentration at 1 h / concentration at 1.5 h / concentration at 2 h / concentration at 6 h: male, C57BL/6J, mouse, tibialis anterior (TA) muscle, intraperitoneal, 5 mg/kg
Procedure: Assessment of BML-260 pharmacokinetics (PK) was carried out by the company Chaon, Yongin-si, Republic of Korea. BML-260 was administered intraperitoneally at a dose of 5 mg/kg in an injection volume of 10 mL/kg. A total of 21 6-week-old male C57BL/6J mice were divided into two groups as follows: 1) PK (plasma) group (3 mice) and 2) PK (TA muscle) group (18 mice across 6 time points).
For the PK (plasma) group, blood samples were collected at 0.5, 1, 1.5, 2, 6, 12, and 24 h after administration, using orbital sinus collection. Blood was centrifuged to obtain plasma that was then stored at −80 °C. For the PK (TA muscle) group, mice were euthanized at 0.5, 1, 1.5, 2, 6, and 12 h post-administration. The TA muscle was weighed and stored at −80 °C.
BML-260 levels in plasma and tissue samples were analyzed with liquid chromatography-tandem mass spectrometry (LC-MS/MS) using an Agilent 1200 HPLC system coupled with an AB Sciex 4000 QTrap MS/MS (Agilent Technologies, CA, USA). Quantification limits were determined based on a signal-to-noise ratio greater than 10, with precision below 20% and accuracy between 80% and 120%.

[3] = 5 mg/kg IP, as read by referee #2

IC50 [1]: 54 µM
Muscle Conc. ([2]; 5 mg/kg (IP), 0.5 h, TA muscle, dilution factor 4, individual animals): 0.350 µg/g and 0.280 µg/g
Muscle Conc. before dilution factor ([2]; 5 mg/kg (IP), 0.5 h, TA muscle, individual animals): 87.62 ng/mL and 70.09 ng/mL
Muscle Conc. ([2]; 5 mg/kg (IP), 1 h, TA muscle, dilution factor 4, individual animals): 0.335 µg/g and 0.367 µg/g
Muscle Conc. before dilution factor ([2]; 5 mg/kg (IP), 1 h, TA muscle, individual animals): 83.78 ng/mL and 91.76 ng/mL
Muscle Conc. ([2]; 5 mg/kg (IP), 1.5 h, TA muscle, dilution factor 4, individual animals): 0.220 µg/g and 0.191 µg/g
Muscle Conc. before dilution factor ([2]; 5 mg/kg (IP), 1.5 h, TA muscle, individual animals): 54.90 ng/mL and 47.79 ng/mL
Muscle Conc. ([2]; 5 mg/kg (IP), 2 h, TA muscle, dilution factor 4, individual animals): 0.165 µg/g and 0.133 µg/g
Muscle Conc. before dilution factor ([2]; 5 mg/kg (IP), 2 h, TA muscle, individual animals): 41.20 ng/mL and 33.33 ng/mL
Muscle Conc. ([2]; 5 mg/kg (IP), 6 h, TA muscle, dilution factor 4, individual animals): 0.013 µg/g and 0.024 µg/g
Muscle Conc. before dilution factor ([2]; 5 mg/kg (IP), 6 h, TA muscle, individual animals): 3.25 ng/mL and 5.89 ng/mL
Muscle Conc. ([2]; 5 mg/kg (IP), 12 h, TA muscle, dilution factor 4, individual animals): BQL
Muscle Conc. before dilution factor ([2]; 5 mg/kg (IP), 12 h, TA muscle, individual animals): 1.21 ng/mL and 0.79 ng/mL and 1.75 ng/mL
Muscle Conc., Mean ([2]; 5 mg/kg (IP), 12 h, TA muscle, n = 3): BQL
delay until peak detection in skeletal muscle (tibialis anterior) ([2]; 5 mg/kg IP): approximately 20 min
peak muscle level [2, 3]: ~ 0.35 ug/g tissue
time of peak muscle level [2, 3]: ~ 1 hour
half maximal inhibitor concentration in muscle ([2]; crude estimate of referee #2 with 1 g tissue = 1 ml): ~ 0.5 uM
concentration at 0.5 h ([2]; 5 mg/kg (IP), 0.5 h, TA muscle, dilution factor 4, individual animals, read-out: Muscle Conc.): 338 ng/g
concentration at 0.5 h ([2]; 5 mg/kg (IP), 0.5 h, TA muscle, individual animals, read-out: Muscle Conc. before dilution factor): 84.6 ng/mL
concentration at 0.5 h ([2]; 5 mg/kg (IP), 0.5 h, TA muscle, n = 3, read-out: Muscle Conc., Mean): 323 ng/g
concentration at 1 h ([2]; 5 mg/kg (IP), 1 h, TA muscle, dilution factor 4, individual animals, read-out: Muscle Conc.): 347 ng/g
concentration at 1 h ([2]; 5 mg/kg (IP), 1 h, TA muscle, individual animals, read-out: Muscle Conc. before dilution factor): 86.7 ng/mL
concentration at 1 h ([2]; 5 mg/kg (IP), 1 h, TA muscle, n = 3, read-out: Muscle Conc., Mean): 350 ng/g
concentration at 1.5 h ([2]; 5 mg/kg (IP), 1.5 h, TA muscle, dilution factor 4, individual animals, read-out: Muscle Conc.): 231 ng/g
concentration at 1.5 h ([2]; 5 mg/kg (IP), 1.5 h, TA muscle, individual animals, read-out: Muscle Conc. before dilution factor): 57.7 ng/mL
concentration at 1.5 h ([2]; 5 mg/kg (IP), 1.5 h, TA muscle, n = 3, read-out: Muscle Conc., Mean): 214 ng/g
concentration at 2 h ([2]; 5 mg/kg (IP), 2 h, TA muscle, dilution factor 4, individual animals, read-out: Muscle Conc.): 166 ng/g
concentration at 2 h ([2]; 5 mg/kg (IP), 2 h, TA muscle, individual animals, read-out: Muscle Conc. before dilution factor): 41.5 ng/mL
concentration at 2 h ([2]; 5 mg/kg (IP), 2 h, TA muscle, n = 3, read-out: Muscle Conc., Mean): 155 ng/g
concentration at 6 h ([2]; 5 mg/kg (IP), 6 h, TA muscle, dilution factor 4, individual animals, read-out: Muscle Conc.): 16 ng/g
concentration at 6 h ([2]; 5 mg/kg (IP), 6 h, TA muscle, individual animals, read-out: Muscle Conc. before dilution factor): 3.9 ng/mL
concentration at 6 h ([2]; 5 mg/kg (IP), 6 h, TA muscle, n = 3, read-out: Muscle Conc., Mean): 17 ng/g
Compound: O=C(O)c1ccc(N2C(=O)C(=Cc3ccccc3)SC2=S)cc1 (stereo in doubt) [BML-260]
skeletal muscle level relative to that needed for enzyme inhibition ([2]; 5 mg/kg IP): may not reach levels where it can function as an enzymatic inhibitor
